Key:
Format in all cases: physicochemical
Solubility in PGMEA = settings: concentration when PGMEA was added dropwise to 0.1 g of the compound under stirring and was dissolved completely
Method: (§1) That the obtained solid was an intended product was confirmed by ^1H-NMR and IR. Furthermore, the solubility of the obtained compound was measured. The solubility was a concentration when PGMEA was added dropwise to 0.1 g of the compound under stirring and was dissolved completely. The results thereof are shown in [Table 1] to [Table 4].
as §1, with “added” for “added dropwise”, “while” for “under”, “4]” for “4].”

[1] = Evaluation of absorption wavelength property in CHCl3 solution; parameters: ε: unit not given here; settings: for ε: molar absorption coefficient
Text: The absorption wavelength properties of Compounds Nos. 1 to 7, 16, 26, 43, 52 to 62, 65, 66, 69, 70 and 94 to 102 and Comparative Compounds Nos. 1 and 2 obtained above were each evaluated in a CHCl3 solution. The results are shown in [Table 5].

[2] = Evaluation of heat resistance by TG-DTA; settings: temperature at 10% weight loss
Method: Compounds Nos. 1 to 7, 16, 26, 43, 52 to 62, 65, 66, 69, 70 and 94 to 102 and Comparative Compounds Nos. 1 and 2 obtained above were analyzed by TG-DTA, and the melting points and temperatures at 10% weight loss were measured. The results are shown in [Table 6].

[3] = Heat resistance of exposed coating film of coloring alkali-developable photosensitive composition; settings: for Relative intensity After exposure: coating film after exposure (150 mJ/cm^2), before heating; for λmax: coating film of composition containing the compound, on glass; for Relative intensity 230° C., 30 min: exposed coating film after 230° C.
Text: 30.33 g of ACA Z250 (manufactured by Daicel Cytec Company Ltd.) and 11.04 g of ARONIX M-450 (manufactured by Toagosei Co., Ltd.) as the component (B), 1.93 g of IRGACURE 907 (manufactured by BASF) as the component (C), 36.60 g of PGMEA and 20.08 g of cyclohexanone as the component (E), as well as 0.01 g of FZ2122 (manufactured by Dow Corning Toray Co., Ltd.) as other component were mixed and stirred until insoluble components were diminished to give Alkali-developable photosensitive composition No. 1.
1.90 g of dimethylacetamide was added to 0.10 g of Compound No. 1 obtained above as the component (A) and dissolved under stirring.
5.0 g of Alkali-developable photosensitive composition No. 1 obtained in Step 1 and 1.0 g of Dye liquid No. 1 obtained in Step 2 were mixed and stirred to homogeneous to give Coloring alkali-developable photosensitive composition No. 1 of the present invention.
Coloring alkali-developable photosensitive compositions Nos. 2 to 20 were obtained in a similar manner to that in Example 2-1, except that Compound No. 1 as the component (A) in Step 2 of Example 2-1 was changed to Compound No. 2, 3, 5, 6, 16, 53, 56, 57, 59, 60, 65, 66, 94 or 96 to 101 obtained above.
Comparative coloring alkali-developable photosensitive compositions Nos. 1 and 2 were obtained in a similar manner to that in Example 2-1, except that Compound No. 1 as the component (A) in Step 2 of Example 2-1 was changed to Comparative Compound No. 1 or 2.
The coloring alkali-developable photosensitive compositions obtained in Example 2 were each applied to a glass basal plate under a condition of 410 rpm×7 sec and dried (90° C., 90 sec) on a hot plate. The obtained coating film was exposed (150 mJ/cm^2) by using an ultrahigh pressure mercury lamp. The heat resistance of the exposed coating film was investigated under conditions of 180° C.×60 min and 230° C.×30 min. The results are shown in [Table 7].
Using the coloring alkali-developable photosensitive compositions obtained in Examples 2-2 to 2-20 and Comparative Examples 2-1 and 2-2, heat resistance was investigated in a similar manner to that in Evaluation Example 3. The results are shown in [Table 7].

Row | Solubility (PGMEA) (Solubility in PGMEA) | λmax [1] | ε [1] | 10% weight loss [2] | Relative intensity After exposure [3] | λmax [3] | Relative intensity 230° C., 30 min [3] | SMILES
1 | 1.0 or less wt % | 405 nm | 71700 | 350 °C | 100 | 408 nm | 73.8 | N#C/C(=C\c1ccc(N2CCOCC2)cc1)C(=O)OCCCCCCCOC(=O)/C(C#N)=C/c1ccc(N2CCOCC2)cc1 [Compound No. 60]
2 | 0.5 wt % | 436 nm | 107000 | 318 °C | 100 | 418 nm | 99.4 | CCN(CC)c1ccc(/C=C(\C#N)C(=O)OCCOC(=O)/C(C#N)=C/c2ccc(N(CC)CC)cc2)cc1 [Compound No. 1]
3 | 1.0 or less wt % | 419 nm | 94100 | 354 °C | 100 | 419 nm | 99.2 | C=C(C)C(=O)OCCN(C)c1ccc(/C=C(\C#N)C(=O)OCCCCCCOC(=O)/C(C#N)=C/c2ccc(N(C)CCOC(=O)C(=C)C)cc2)cc1 [Compound No. 66]
4 | 0.4 wt % | 435 nm | 104000 | 329 °C | 100 | 433 nm | 99.4 | CCN(CC)c1ccc(/C=C(\C#N)C(=O)OCCCOC(=O)/C(C#N)=C/c2ccc(N(CC)CC)cc2)cc1 [Compound No. 3]
5 | 2.0 wt % | 430 nm | 110000 | 348 °C | 100 | 431 nm | 99.5 | CCN(CC)c1ccc(/C=C(\C#N)C(=O)OCCCCCCCOC(=O)/C(C#N)=C/c2ccc(N(CC)CC)cc2)cc1 [Compound No. 5]
6 | 1.0 or less wt % | 420 nm | 89900 | 295 °C | 100 | 431 nm | 99.7 | CN(CCO)c1ccc(/C=C(\C#N)C(=O)OCCCCCCOC(=O)/C(C#N)=C/c2ccc(N(C)CCO)cc2)cc1 [Compound No. 59]

Second part, the molecule before the results:

Row | SMILES | Solubility (PGMEA) (Solubility in PGMEA) | λmax [1] | ε [1] | 10% weight loss [2] | Relative intensity After exposure [3] | λmax [3] | Relative intensity 230° C., 30 min [3]
7 | CCN(CC)c1ccc(/C=C(\C#N)C(=O)Oc2ccc(C(C)(C)c3ccc(OC(=O)/C(C#N)=C/c4ccc(N(CC)CC)cc4)cc3)cc2)cc1 [Compound No. 6] | 0.9 wt % | 440 nm | 132000 | 322 °C | 100 | 442 nm | 99.9
8 | CCN(CC)c1ccc(/C=C(\C#N)C(=O)OCC(C)(COC(=O)/C(C#N)=C/c2ccc(N(C)CCO)cc2)COC(=O)/C(C#N)=C/c2ccc(N(CC)CC)cc2)cc1 (centres unmarked) [Compound No. 100] | 6.0 wt % | 434 nm | 147000 | 330 °C | 100 | 436 nm | 99.7
9 | CCN(CC)c1ccc(/C=C(\C#N)C(=O)OCC(C)(COC(=O)/C(C#N)=C/c2ccc(N(C)CCO)cc2)COC(=O)/C(C#N)=C/c2ccc(N(C)CCO)cc2)cc1 [Compound No. 99] | 1.0 or less wt % | 431 nm | 130000 | 320 °C | 100 | 433 nm | 99.6
10 | N#C/C(=C\c1ccc(N(c2ccccc2)c2ccccc2)cc1)C(=O)OCCCCCCCOC(=O)/C(C#N)=C/c1ccc(N(c2ccccc2)c2ccccc2)cc1 [Compound No. 65] | 5.3 wt % | 435 nm | 65300 | 354 °C | 100 | 430 nm | 99.3
11 | CCN(CC)c1ccc(/C=C(\C#N)C(=O)OCC(COC(=O)/C(C#N)=C/c2ccc(N(CC)CC)cc2)(COC(=O)/C(C#N)=C/c2ccc(N(CC)CC)cc2)COC(=O)/C(C#N)=C/c2ccc(N(CC)CC)cc2)cc1 [Compound No. 16] | 1.8 wt % | 439 nm | 210000 | 328 °C | 100 | 438 nm | 99.7

Reference: patent US8664289B2, “Dye and coloring photosensitive composition” (Adeka Corporation, priority 2010, dated 2014)
